From patent publication US20060110456A1, “Method for biocidal and/or biostatic treatment and compositions therefor” (NATIONAL UNIVERSITY OF SINGAPORE, priority 2004, published 2006)
Structures can show the parent of a compound that is named as a salt.

Assays:
[1] = tested on: hard fouling (barnacles, serpulids, spirorbids); test: Field testing of coated rods; type: in vivo; parameters: Total hard fouling, difference in mean cover (%), drug vs control / Barnacles, difference in mean cover (%), drug vs control: tested at 25 µg/ml of coating; Serpulids, difference in mean cover (%), drug vs control: tested at 25 µg/ml of coating mix
Description: Fouling on rods occurs more rapidly than on flat panels, enabling rapid assessment of the performance of coatings.
6 mm diameter glass rods were cut to 150 mm length and prepared prior to coating by baking in a furnace at 150° C. for 24 hours and then cooling in a dessicator.
All pharmaceuticals were obtained in commercially available form. All tablets were reduced to fine powder with a mortar and pestle, and capsules were opened to extract the contents. The amount of drug powder required to attain the desired concentrations for all tests was calculated from product dosage information and then measured by weight on a high-resolution electronic balance. This was added to the coating and mixed thoroughly prior to application to obtain the concentration of 25 ug active ingredient per ml of coating mix.
The commercial antifouling product used to benchmark field experiments was VC Offshore with Teflon® manufactured by International Coatings.
For our experiments, a reduced copper coating (“VC50”) was prepared by mixing approximately 20 g of #YBA779 into 100 ml of #YBA707. The prepared coating was then allowed to stand so that bubbles from the mixing process dissipated. 15 ml centrifuge tubes were filled with 10 mls of prepared coating. Prepared glass rods were then immersed in the coating to a height of 100 mm and then suspended on a frame to air dry until coating cured.
Five replicate rods were tested for every experimental treatment, including controls. Two sets of controls were used, an uncoated blank control and a VC50 control without pharmaceutical additives. Rod were randomly arrayed on plastic vexar mesh attached to PVC frames and suspended at a depth of 10 cm from the water surface. […] Rods were examined visually weekly for the duration of testing, which typically lasts between 6 to 10 weeks. All fouling was scored as percentage cover of each category within a 6 mm×50 mm transect on each rod.

[2] = tested on: Balanus amphitrite cyprids; test: whole plant or invertebrate; details: for Prevention of settlement of barnacle cyprids: crude rank, best (1) to worst (8)
Description: Pharmaceuticals from the respective manufacturers were treated in the following way. A pill containing a known amount of active ingredient (as stated in product information) was ground in a mortar and pestle and a suspension of 2 mg ml^−1 generated in de-ionized water. This stock solution is stored at −20° C. in 4 ml amber screw cap vials. For the bioassays, 250 ul of stock solution is added to 10 ml of 1 um filtered seawater. This suspension was then sonicated for 10 minutes. Serial dilutions of this 50 μg ml^−1 seawater solution, or suspension, with seawater was done to generate the required range of concentrations.
This method is now standard practice for many antifouling screening of novel compounds.
Barnacle larvae from field-collected adults were reared on an algal mixture of 1:2:2 v/v of Rhodomonas salina, Tetraselmis suecica and Chaetoceros muelleri at 25° C., at approximately 5×10^5 cells per ml density. On this regime, larvae metamorphose to cyprids in 5 days.
Test solutions were made up to twice the required final concentration. 1 ml of test solution was added into each well, and cyprids were transferred into each well in 1 ml of seawater. Assays were done in triplicate. After 24 hours, larvae that had attached and metamorphosed were enumerated and the result expressed as percentage settlement. Larvae not attached were scored as not settled.
The Therapeutic Ratio, or LC50/EC50, is a way of assessing the effectiveness of the compound in relation to its toxicity. […] LC50 and EC50 estimates and the therapeutic ratio should be considered as working values providing an estimation of potency, rather than as absolutes.

[3] = tested on: marine bacteria (26 strains); test: Disk inhibition assay; type: cell-based, marine bacteria isolated from Singapore fouling communities
Description: Preparation of Drugs onto Disks for Assay
The non-antibiotic pharmaceuticals of Table 1 were prepared in the following way. A tablet with a known amount of active ingredient (as stated in the product information) was ground in a mortar and pestle and suspended in sterile deionized water to a concentration of 2 mg ml^−1. These samples were sonicated for at least 1 min. […] The two halves of the capsule were separated and the powder released straight into a bottle and suitable amount of water added to make a concentration of 2 mg ml^−1.
As a comparison to the pharmaceuticals, to determine the susceptibility of the bacterial isolates to conventional antibiotics, commercially available antibiotic discs were used. Antibiotic discs (Oxoid® CT series) containing Ampicillin [Amp] (2 and 10 μg), Erythromycin [Ery] (5 and 15 μg), Streptomycin [Str] (10 and 25 μg) and Tetracycline [Tet] (5 and 30 μg) were placed on lawns of the bacterial strains inoculated as described below.
Sterile swabs dipped into the cultures were used to inoculate Marine Agar plates with a bacterial lawn by smearing the culture over the surface. After inoculating the plates, discs with antibiotics, pharmaceuticals or control blanks were placed on each plate. Each concentration of antibiotic or pharmaceutical was tested with three replicates on three separate occasions. After the disks were placed on the agar surface, plates were incubated overnight in the dark at 30° C. After incubation, plates were examined for zones of inhibition or clearing around control and treated disks. The diameter of any zone of clearing or inhibition was measured using Vernier calipers.
The assay was repeated three times with three replicates for each concentration used, each time.

[4] = crude rank, best (1) to worst (8)
[5] = drug + VC50 rods vs VC50 control
[6] = drug + VC50 rods vs uncoated blank control
[7] = rods coated with drug + VC50, field test

CN[C@H]1CC[C@@H](c2ccc(Cl)c(Cl)c2)c2ccccc21.Cl [ZLT, sertraline hydrochloride]
Performance against serpulid polychaetes ([1]; coated rods, in words): higher cover of serpulid and spirorbid polychaetes compared to VC50 alone | Performance against spirorbid polychaetes ([1]; coated rods, in words): higher cover of serpulid and spirorbid polychaetes compared to VC50 alone | Overall performance in field assay [1, 4]: 8 | Barnacles, difference in mean cover (%), drug vs VC50 [1, 5]: −11.67% | Serpulids, difference in mean cover (%), drug vs VC50 [1, 5]: +1.66% | Spirorbids, difference in mean cover (%), drug vs VC50 [1, 5]: +6.67% | Total hard fouling, difference in mean cover (%), drug vs VC50 [1, 5]: −3.33% | Barnacles, difference in mean cover (%), drug vs control [1, 6]: −74.67% | Serpulids, difference in mean cover (%), drug vs control [1, 6]: 0% | Spirorbids, difference in mean cover (%), drug vs control [1, 6]: +28.33% | Total hard fouling, difference in mean cover (%), drug vs control [1, 6]: −46.33% | Reduction of total hard fouling cover compared to VC50 alone ([1]; drug at 25 ug per ml of VC50 coating): 3.3% | Effect of addition of drug on antifouling performance of VC50 coating (total hard fouling) ([1]; drug at 25 ug per ml of VC50 coating, in words): did not significantly improve the antifouling performance of VC50 | Barnacles Mean cover (%) [1, 7]: 18.33% | Serpulids Mean cover (%) [1, 7]: 3.33% | Spirorbids Mean cover (%) [1, 7]: 30% | Total hard fouling Mean cover (%) ([1]; rods coated with drug + VC50, field test, percentage cover within 6 mm×50 mm transect): 51.67% | ED50 ([2]; barnacle cyprids, 24 hours, concentration that caused 50% settlement inhibition): 0.50185 µg/mL | Prevention of settlement of barnacle cyprids [2]: 6

CN1CCN(CCCN2c3ccccc3Sc3ccc(C(F)(F)F)cc32)CC1 [TFZ, Trifluoperazine hydrochloride]
Number of strains inhibited out of 26 strains ([3]; 25 μg per disc): 22 | Strains showing no inhibition (of 26) ([3]; 50 μg per disc): 2 | Antibiotic activity against marine bacteria ([3]; 25 or 50 μg per disc, in words): strongest activity | Antibiotic activity against marine bacteria [3, 4]: 3 | zone of inhibition at 25 µg/disc ([3]; strain 1 (Rhodovulum), 25 μg per disc): < 5 mm | zone of inhibition at 50 µg/disc ([3]; strain 1 (Rhodovulum), 50 μg per disc): < 5 mm | zone of inhibition at 25 µg/disc ([3]; strain 2 (Erythrobacter), 25 μg per disc): < 5 mm | zone of inhibition at 50 µg/disc ([3]; strain 2 (Erythrobacter), 50 μg per disc): 10 to 19 mm | zone of inhibition at 25 µg/disc ([3]; strain 3 (Erythrobacter), 25 μg per disc): 10 to 19 mm | zone of inhibition at 50 µg/disc ([3]; strain 3 (Erythrobacter), 50 μg per disc): 10 to 19 mm | zone of inhibition at 25 µg/disc ([3]; strain 4 (Bacillus), 25 μg per disc): 10 to 19 mm | zone of inhibition at 50 µg/disc ([3]; strain 4 (Bacillus), 50 μg per disc): 10 to 19 mm | zone of inhibition at 25 µg/disc ([3]; strain 6 (Vibrio), 25 μg per disc): 5 to 9 mm | zone of inhibition at 50 µg/disc ([3]; strain 6 (Vibrio), 50 μg per disc): 5 to 9 mm | zone of inhibition at 25 µg/disc ([3]; strain 7 (Vibrio), 25 μg per disc): < 5 mm | zone of inhibition at 50 µg/disc ([3]; strain 7 (Vibrio), 50 μg per disc): 5 to 9 mm | zone of inhibition at 25 µg/disc ([3]; strain 8 (Bacillus), 25 μg per disc): 5 to 9 mm | zone of inhibition at 50 µg/disc ([3]; strain 8 (Bacillus), 50 μg per disc): 10 to 19 mm | zone of inhibition at 25 µg/disc ([3]; strain 9 (Bacillus), 25 μg per disc): 10 to 19 mm | zone of inhibition at 50 µg/disc ([3]; strain 9 (Bacillus), 50 μg per disc): 10 to 19 mm | zone of inhibition at 25 µg/disc ([3]; strain 10 (Halobacillus), 25 μg per disc): 10 to 19 mm | zone of inhibition at 50 µg/disc ([3]; strain 10 (Halobacillus), 50 μg per disc): 10 to 19 mm | zone of inhibition at 25 µg/disc ([3]; strain 11 (Pseudomonas), 25 μg per disc): 10 to 19 mm | zone of inhibition at 50 µg/disc ([3]; strain 11 (Pseudomonas), 50 μg per disc): 10 to 19 mm | zone of inhibition at 25 µg/disc ([3]; strain 12 (Gordonia), 25 μg per disc): 10 to 19 mm | zone of inhibition at 50 µg/disc ([3]; strain 12 (Gordonia), 50 μg per disc): 10 to 19 mm | zone of inhibition at 25 µg/disc ([3]; strain 13 (Bacillus), 25 μg per disc): 10 to 19 mm | zone of inhibition at 50 µg/disc ([3]; strain 13 (Bacillus), 50 μg per disc): 10 to 19 mm | zone of inhibition at 25 µg/disc ([3]; strain 14 (Vibrio), 25 μg per disc): < 5 mm | zone of inhibition at 50 µg/disc ([3]; strain 14 (Vibrio), 50 μg per disc): < 5 mm | zone of inhibition at 25 µg/disc ([3]; strain 16 (Pseudoalteromonas), 25 μg per disc): 5 to 9 mm | zone of inhibition at 50 µg/disc ([3]; strain 16 (Pseudoalteromonas), 50 μg per disc): 10 to 19 mm | zone of inhibition at 25 µg/disc ([3]; strain 17 (Gordonia), 25 μg per disc): 5 to 9 mm | zone of inhibition at 50 µg/disc ([3]; strain 17 (Gordonia), 50 μg per disc): 10 to 19 mm | zone of inhibition at 25 µg/disc ([3]; strain 18 (Microbacterium), 25 μg per disc): 10 to 19 mm | zone of inhibition at 50 µg/disc ([3]; strain 18 (Microbacterium), 50 μg per disc): 10 to 19 mm | zone of inhibition at 25 µg/disc ([3]; strain 19 (Erythrobacter), 25 μg per disc): 10 to 19 mm | zone of inhibition at 50 µg/disc ([3]; strain 19 (Erythrobacter), 50 μg per disc): 10 to 19 mm | zone of inhibition at 25 µg/disc ([3]; strain 20, 25 μg per disc): 10 to 19 mm | zone of inhibition at 50 µg/disc ([3]; strain 20, 50 μg per disc): 20 to 29 mm | zone of inhibition at 25 µg/disc ([3]; strain 21, 25 μg per disc): 5 to 9 mm | zone of inhibition at 50 µg/disc ([3]; strain 21, 50 μg per disc): 5 to 9 mm | zone of inhibition at 25 µg/disc ([3]; strain 22, 25 μg per disc): 10 to 19 mm | zone of inhibition at 50 µg/disc ([3]; strain 22, 50 μg per disc): 20 to 29 mm | zone of inhibition at 25 µg/disc ([3]; strain 24, 25 μg per disc): 10 to 19 mm | zone of inhibition at 50 µg/disc ([3]; strain 24, 50 μg per disc): 10 to 19 mm | zone of inhibition at 25 µg/disc ([3]; strain 26, 25 μg per disc): 5 to 9 mm | zone of inhibition at 50 µg/disc ([3]; strain 26, 50 μg per disc): 10 to 19 mm | zone of inhibition at 25 µg/disc ([3]; strain 27, 25 μg per disc): 10 to 19 mm | zone of inhibition at 50 µg/disc ([3]; strain 27, 50 μg per disc): 10 to 19 mm | zone of inhibition at 25 µg/disc ([3]; strain 28, 25 μg per disc): 5 to 9 mm | zone of inhibition at 50 µg/disc ([3]; strain 28, 50 μg per disc): 10 to 19 mm | zone of inhibition at 25 µg/disc ([3]; strain 29, 25 μg per disc): 10 to 19 mm | zone of inhibition at 50 µg/disc ([3]; strain 29, 50 μg per disc): 10 to 19 mm | zone of inhibition at 25 µg/disc ([3]; strain 30, 25 μg per disc): 10 to 19 mm | zone of inhibition at 50 µg/disc ([3]; strain 30, 50 μg per disc): 10 to 19 mm | IC50 ([2]; Amphibalanus amphitrite, 24 h, read-out: ED50): 0.0748 µg/mL | Prevention of settlement of barnacle cyprids [2]: 2
